# “And” between values parts separate entries of the source, which are not always exact repeats. Equal entries are not always repeated. Inconclusive results and toxic doses are left out.
# Tested on: Lymphoma 4 ip in BDF1 mice, median survival
# Experiment: NCI In Vivo Anticancer Drug Screen. Data for tumor model Lymphoma 4 (intraperitoneal) in B6D2F1 (BDF1) mice
# Conditions: endpoint: median survival time, schedule: Q01DX010 (ip), higher = longer survival
# Method: The antitumor activity of compounds was measured in mice bearing transplantable tumors. Survival or tumor size were measured and the results are expressed as the measurement made in the treated group (T) divided by the measurement made in the vehicle treated control group (C). The tumor model used in this assay is Lymphoma 4 (intraperitoneal) in B6D2F1 (BDF1) mice
# [1] = dose: 0.5 mg/kg/injection, vehicle: saline
# [2] = dose: 1.0 mg/kg/injection, vehicle: saline
# [3] = dose: 2.0 mg/kg/injection, vehicle: saline
# [4] = dose: 4.0 mg/kg/injection, vehicle: saline
# [5] = dose: 125.0 mg/kg/injection, vehicle: saline
# [6] = dose: 250.0 mg/kg/injection, vehicle: saline
# [7] = dose: 62.5 mg/kg/injection, vehicle: saline
# [8] = dose: 500.0 mg/kg/injection, vehicle: saline
# [9] = dose: 8.0 mg/kg/injection, vehicle: saline
# [10] = dose: 16.0 mg/kg/injection, vehicle: saline
# [11] = dose: 1.25 mg/kg/injection, vehicle: saline
# [12] = dose: 5.0 mg/kg/injection, vehicle: saline
# [13] = dose: 10.0 mg/kg/injection, vehicle: saline
# [14] = dose: 20.0 mg/kg/injection, vehicle: saline
# [15] = dose: 7.5 mg/kg/injection, vehicle: saline
# [16] = dose: 15.0 mg/kg/injection, vehicle: saline
# [17] = dose: 30.0 mg/kg/injection, vehicle: saline
# [18] = dose: 3.13 mg/kg/injection, vehicle: saline
# [19] = dose: 6.25 mg/kg/injection, vehicle: saline
# [20] = dose: 12.5 mg/kg/injection, vehicle: saline
# [21] = dose: 25.0 mg/kg/injection, vehicle: saline
# [22] = dose: 60.0 mg/kg/injection, vehicle: saline
# [23] = dose: 50.0 mg/kg/injection, vehicle: saline
# [24] = dose: 100.0 mg/kg/injection, vehicle: saline
# [25] = dose: 200.0 mg/kg/injection, vehicle: saline
smiles,measurement,setting,value
COCCCNP(=S)(N1CC1)N1CC1,T/C,[1],93 % of control
same,T/C,[2],100 % of control
same,T/C,[3],113 % of control
same,T/C,[4],116 % of control
CCOC(N)=O,T/C,[5],103 % of control and 117 % of control
same,T/C,[6],106 % of control and 111 % of control
O=CCC(O)C(O)C(O)CO (stereo not drawn),T/C,[7],100 % of control
same,T/C,[5],100 % of control and 103 % of control
same,T/C,[6],103 % of control and 107 % of control
same,T/C,[8],100 % of control and 110 % of control
CC(CCC(C)OS(C)(=O)=O)OS(C)(=O)=O (stereo not drawn),T/C,[3],103 % of control
same,T/C,[4],103 % of control and 107 % of control
same,T/C,[9],96 % of control and 100 % of control
same,T/C,[10],107 % of control and 113 % of control
Nc1nc(=S)c2[nH]cnc2[nH]1,T/C,"dose: 1.25 mg/kg/injection, vehicle: other",88 % of control
same,T/C,[11],94 % of control
same,T/C,"dose: 2.5 mg/kg/injection, vehicle: saline",88 % of control
N=C(N)SCc1c2ccccc2c(CSC(=N)N)c2ccccc12,T/C,[12],170 % of control
same,T/C,[13],211 % of control
same,T/C,[14],303 % of control
same,T/C,"dose: 40.0 mg/kg/injection, vehicle: saline",96 % of control
CC(=O)N(C)C,T/C,[7],87 % of control
same,T/C,[6],88 % of control
same,T/C,[8],100 % of control
CN(C)[C@@H]1C(=O)C(C(N)=O)=C(O)[C@@]2(O)C(=O)C3=C(O)c4c(O)cccc4C[C@H]3C[C@@H]12,T/C,"dose: 3.75 mg/kg/injection, vehicle: saline",114 % of control
same,T/C,[15],107 % of control and 111 % of control
same,T/C,[16],107 % of control
same,T/C,[17],100 % of control and 107 % of control
C[C@H]1C(=O)O[C@@H]2CCN3CC=C(COC(=O)[C@](C)(O)[C@@]1(C)O)[C@H]23,T/C,[18],94 % of control and 100 % of control
same,T/C,[19],93 % of control and 94 % of control
same,T/C,[20],94 % of control and 103 % of control
same,T/C,[21],91 % of control and 103 % of control
N#CCSc1ncnc2nc[nH]c12,T/C,[16],103 % of control
same,T/C,[17],100 % of control and 107 % of control
same,T/C,[22],100 % of control and 107 % of control
same,T/C,"dose: 120.0 mg/kg/injection, vehicle: saline",107 % of control
O=C(Nc1ccc(NC2=NCCN2)cc1)c1ccc(C(=O)Nc2ccc(NC3=NCCN3)cc2)cc1,T/C,[3],113 % of control and 121 % of control
same,T/C,[9],207 % of control
same,T/C,[10],96 % of control
OCC1OC(n2cnc3c(Cl)ncnc32)C(O)C1O (stereo not drawn),T/C,[7],100 % of control and 103 % of control
same,T/C,[5],94 % of control and 103 % of control
same,T/C,[6],94 % of control and 106 % of control
same,T/C,[8],94 % of control and 100 % of control
CCN(CC)CCNc1ccc(C)c2sc3ccccc3c(=O)c12,T/C,[21],103 % of control
same,T/C,[23],120 % of control and 123 % of control
same,T/C,[24],103 % of control
Oc1cc(CN(CCCl)CCCl)c(O)cc1CN(CCCl)CCCl,T/C,"dose: 0.63 mg/kg/injection, vehicle: saline",113 % of control and 120 % of control
same,T/C,[11],106 % of control and 116 % of control
O=C(O)c1[nH]c(=O)[nH]c(=O)c1F,T/C,[11],120 % of control
same,T/C,[12],163 % of control and 175 % of control
same,T/C,[13],96 % of control
O=c1[nH]cc(F)c(=O)[nH]1,T/C,[12],161 % of control
same,T/C,[13],179 % of control and 180 % of control
same,T/C,[14],193 % of control and 246 % of control
O=C(O)CCCc1ccc(N(CCCl)CCCl)cc1,T/C,[18],100 % of control and 105 % of control
same,T/C,[19],100 % of control and 123 % of control
same,T/C,[20],114 % of control
Nc1nc(SCc2ccccc2)c2[nH]cnc2n1,T/C,[9],96 % of control and 100 % of control
same,T/C,[10],96 % of control and 100 % of control
CC[n+]1c(-c2ccccc2)c2cc(N)ccc2c2ccc(N)cc21,T/C,[13],242 % of control
Nc1nc(F)nc2c1ncn2C1OC(CO)C(O)C1O (stereo not drawn),T/C,"dose: 0.25 mg/kg/injection, vehicle: saline",100 % of control
same,T/C,[1],107 % of control and 114 % of control
same,T/C,[2],92 % of control and 103 % of control
same,T/C,[3],107 % of control
same,T/C,[4],96 % of control
CN(C)c1ccc(Nc2c3ccccc3nc3ccccc23)cc1,T/C,"dose: 36.0 mg/kg/injection, vehicle: saline",107 % of control
same,T/C,"dose: 54.0 mg/kg/injection, vehicle: saline",100 % of control and 115 % of control
same,T/C,"dose: 80.0 mg/kg/injection, vehicle: saline",121 % of control and 123 % of control
CO[C@@H]1[C@@H](OC2OC(C)C(OC3CC(C)(O)C(OC(=O)CC(C)C)C(C)O3)C(N(C)C)C2O)[C@@H](CC=O)C[C@@H](C)C(=O)/C=C/C2O[C@H]2C[C@@H](C)OC(=O)C[C@H]1OC(C)=O (stereo partly drawn),T/C,"dose: 37.5 mg/kg/injection, vehicle: saline",100 % of control and 107 % of control
same,T/C,"dose: 75.0 mg/kg/injection, vehicle: saline",100 % of control and 111 % of control
same,T/C,"dose: 150.0 mg/kg/injection, vehicle: saline",100 % of control and 118 % of control
same,T/C,"dose: 300.0 mg/kg/injection, vehicle: saline",100 % of control and 111 % of control
Clc1ncnc2nc[nH]c12,T/C,[15],100 % of control and 102 % of control
same,T/C,[16],90 % of control and 94 % of control
same,T/C,[17],90 % of control and 105 % of control
same,T/C,[22],96 % of control and 100 % of control
S=P(N1CC1)(N1CC1)N1CC1,T/C,"dose: 0.05 mg/kg/injection, vehicle: saline",106 % of control
same,T/C,"dose: 0.75 mg/kg/injection, vehicle: saline",110 % of control
same,T/C,"dose: 1.5 mg/kg/injection, vehicle: saline",117 % of control and 123 % of control
same,T/C,"dose: 6.0 mg/kg/injection, vehicle: saline",114 % of control
CS(=O)(=O)OCCN(CCOS(C)(=O)=O)c1ccc(N=O)cc1,T/C,[1],123 % of control
CSc1ncnc2nc[nH]c12,T/C,[21],100 % of control and 103 % of control
same,T/C,[23],96 % of control and 115 % of control
same,T/C,[24],103 % of control
same,T/C,[25],100 % of control and 115 % of control
OC(CBr)C(O)C(O)C(O)CBr (stereo not drawn),T/C,[21],115 % of control
same,T/C,[23],115 % of control
same,T/C,[25],115 % of control

# Source: PubChem BioAssay AID240 (DTP/NCI, 2004)
